One experiment addresses T1, thromboxane synthetase (Homo sapiens, UniProt P24557).
T1 construct: crude microsomal preparation of thromboxane synthetase from lysed human platelets; from tissue; host or cells: human platelets (lysed), crude microsomal preparation
T1 sequence (P24557 1-533): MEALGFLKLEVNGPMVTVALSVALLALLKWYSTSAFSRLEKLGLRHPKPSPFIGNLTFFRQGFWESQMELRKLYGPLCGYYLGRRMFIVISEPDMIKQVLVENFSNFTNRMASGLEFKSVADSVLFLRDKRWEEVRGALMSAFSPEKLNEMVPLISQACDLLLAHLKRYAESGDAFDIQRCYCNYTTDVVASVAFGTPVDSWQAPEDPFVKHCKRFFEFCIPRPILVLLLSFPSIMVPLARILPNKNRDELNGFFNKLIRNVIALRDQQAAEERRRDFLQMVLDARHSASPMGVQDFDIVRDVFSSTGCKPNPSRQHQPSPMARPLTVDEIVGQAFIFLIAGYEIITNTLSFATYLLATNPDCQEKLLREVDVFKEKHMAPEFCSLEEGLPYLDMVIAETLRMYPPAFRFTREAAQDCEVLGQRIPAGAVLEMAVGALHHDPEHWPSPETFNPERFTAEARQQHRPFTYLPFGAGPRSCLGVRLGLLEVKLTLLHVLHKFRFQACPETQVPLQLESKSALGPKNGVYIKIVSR
The experiment in a line: in vitro inhibition of the thromboxane synthetase enzyme (TxB2/PGF2α+β ratio). In kind it is biochemical. The conditions noted are these: 30 minutes incubation. Here is the method:
Res. Comm. 74, 1432 (1977); the testing procedure is as follows: ^14 C-Arachidonic acid is incubated with an enzyme consisting of solubilized and partially purified prostaglandin cyclo-oxygenase from sheep seminal vesicles and a crude microsomal preparation of thromboxane synthetase from lysed human platelets. The test compound (dissolved in buffer, or if necessary, in a small amount of ethanol) is added to the incubation medium. […] The radioactive zones are located; those corresponding to Thromboxane B2 (TxB2) and PGF2 α+β are transferred to liquid scintillation vials and counted. The ratio of counts for TxB2 /PGF2 α+β is calculated for each concentration of test compound and IC50 values are determined graphically as the concentration of test compound at which the ratio of TxB2 /PGF2 α+β is reduced to 50% of the control value.

Another experiment deals with prostacyclin (PGI2). The experiment in a line: plasma level of prostacyclin (6-keto-PGF1α) in vivo (ionophore A23187 injected). The settings on record: rat, oral dose 0.10 mg/kg or higher. The method, then: (§1) The inhibition of the synthesis and the reduction of plasma levels of thromboxane is determined in vivo on administration to rats in the following manner (as adapted from the procedures described by Tai et al. in Anal. Biochem. 87:343, 1978 and by Salmon in Prostaglandins 15:383, 1978):
(§2) Rats are dosed with vehicle or test drug and injected intravenously with ionophore A23187 (0.5 mg/kg) two hours later. Blood is collected for analysis 2 minutes after the ionophore injection. A single aliquot of each plasma sample is assayed for thromboxane B2 and another aliquot for 6-keto-PGF1 α, the stable metabolites of thromboxane A2 and prostacyclin (PGI2) respectively, by radioimmunoassay.

The test system of a further experiment is platelet aggregation. The experiment in a line: variously induced platelet aggregation. From the text: (§3) Experimentally, prolongation of bleeding time in the rat is indicative of a beneficial antithrombotic effect.
The test system of a further experiment is thrombocytopenia. Put plainly: variously induced thrombocytopenia. The conditions noted are these: in vivo.
Another experiment concerns bleeding time. Put plainly: prolongation of bleeding time in the rat. In kind it is in vivo. The conditions noted are these: orally to rats, about 30 mg/kg.
Text: as §3

Experiment [1] has as its system arachidonic acid induced pulmonary obstruction. Put plainly: protection against sudden death due to arachidonic acid induced pulmonary obstruction. The format is in vivo. The settings on record: orally to mice, 100 mg/kg.
A further experiment concerns thromboxane B2. The experiment in a line: reduction of plasma levels of thromboxane B2 in vivo (ionophore A23187 injected). The conditions noted are these: rat, oral dose as low as 0.10 mg/kg. The method, then: as §1, §2

This note sets out measurements from patent US4478842A, “N-Substituted-2-pyridylindoles” (Ciba-Geigy Corporation, priority 1982, dated 1984).

Counter-ions that a name gives are not always drawn.

On to `Cc1c(-c2cccnc2)n(CCOc2ccc(C(=O)O)cc2)c2ccccc12` [Example 20, 1-[2-(4-carboxyphenoxy)ethyl]-2-(3-pyridyl)-3-methylindole], for which, at thromboxane synthetase, the IC50 – broadly, the concentration that inhibits the measured activity by half – was found to be 26 nM.
Take `Cc1c(-c2cccnc2)n(CCCCCCCC(=O)O)c2ccccc12` [Example 1, 1-(7-carboxyheptyl)-3-methyl-2-(3-pyridyl)indole]: the “plasma level of prostacyclin” value in the experiment on prostacyclin (PGI2) is on record as “surprising increase”. Besides, the “inhibition of variously induced platelet aggregation” value with platelet aggregation is on record as “inhibits variously induced platelet aggregation”. Besides, the “inhibition of variously induced thrombocytopenia” value with thrombocytopenia is “inhibits variously induced platelet aggregation and thrombocytopenia”. Moreover, in the experiment on bleeding time, the “prolongation of bleeding time” value is “prolongs bleeding time”. For the same compound, in experiment [1], the “protection against sudden death” value is “protects against sudden death”.
As to `Cc1c(-c2cccnc2)n(CCSc2ccc(C(=O)O)cc2)c2ccccc12` [Example 22, 1-[2-(4-carboxyphenylthio)ethyl]-2-(3-pyridyl)-3-methylindole hydrochloride], on thromboxane synthetase, the IC50 worked out at 58 nM.
Regarding `Cc1c(-c2cccnc2)n(CCCCCC(=O)O)c2ccc(Cl)cc12` [Example 7, 1-(5-carboxypentyl)-5-chloro-3-methyl-2-(3-pyridyl)indole], the “decrease of the plasma concentration of thromboxane B2” value with thromboxane B2 is given as “over 50%”. Besides, the “plasma level of prostacyclin” value in the experiment on prostacyclin (PGI2) is listed as “surprising increase”.
